Experiments:
Format in all cases: biochemical
PAD2 = target: T1, PAD2 (Homo sapiens, UniProt Q9Y2J8); test: Inactivation kinetics, PAD2; conditions: for kinact/KI: a: single kobs determined, b: from a linear fit, other footnotes: from kinact and KI; for Fold PAD2 Selectivity: kinact/KI relative to least inhibited isozyme (1.0)
T1 construct: made in house
Summary of the method: (§1)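 PAD1, 2 or 4 (2.0 μM) or PAD3 (5.0 μM) preincubated at 37 °C with varying inhibitor in 50 mM HEPES, 10 mM CaCl2, 2 mM DTT, pH 7.6. Timed aliquots assayed 15 min with 10 mM BAEE (BAA for PAD3); citrulline quantified by COLDER.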

PAD1 = target: T2, PAD1 (Homo sapiens, UniProt Q9ULC6); test: Inactivation kinetics, PAD1; conditions: for kinact/KI: a: single kobs determined, b: from a linear fit; for Fold PAD1 Selectivity: kinact/KI relative to least inhibited isozyme (1.0)
T2 construct: made in house
T2 sequence (Q9ULC6 1-663): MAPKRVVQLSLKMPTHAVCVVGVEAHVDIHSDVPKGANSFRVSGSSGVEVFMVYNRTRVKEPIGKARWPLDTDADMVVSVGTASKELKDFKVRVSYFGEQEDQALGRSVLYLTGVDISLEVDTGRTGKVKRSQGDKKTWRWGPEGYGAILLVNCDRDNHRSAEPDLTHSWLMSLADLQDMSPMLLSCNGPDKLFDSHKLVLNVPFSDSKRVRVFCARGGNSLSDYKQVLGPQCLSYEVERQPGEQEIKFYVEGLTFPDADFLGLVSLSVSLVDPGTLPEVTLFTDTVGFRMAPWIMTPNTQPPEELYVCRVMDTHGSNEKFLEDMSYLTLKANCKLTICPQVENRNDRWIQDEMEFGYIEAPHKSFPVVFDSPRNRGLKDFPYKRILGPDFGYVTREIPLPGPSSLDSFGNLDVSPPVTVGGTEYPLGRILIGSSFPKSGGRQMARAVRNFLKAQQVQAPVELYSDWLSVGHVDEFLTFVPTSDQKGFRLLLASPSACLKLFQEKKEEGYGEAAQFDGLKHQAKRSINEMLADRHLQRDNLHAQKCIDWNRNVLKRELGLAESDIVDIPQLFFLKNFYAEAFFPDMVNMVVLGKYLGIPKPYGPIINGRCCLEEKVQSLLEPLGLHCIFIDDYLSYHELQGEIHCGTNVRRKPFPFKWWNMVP
Summary of the method: as §1

PAD3 = target: T3, PAD3 (Homo sapiens, UniProt Q9ULW8); test: Inactivation kinetics, PAD3; conditions: for kinact/KI: a: single kobs determined; for Fold PAD3 Selectivity: kinact/KI relative to least inhibited isozyme (1.0)
T3 construct: made in house
T3 sequence (Q9ULW8 1-664): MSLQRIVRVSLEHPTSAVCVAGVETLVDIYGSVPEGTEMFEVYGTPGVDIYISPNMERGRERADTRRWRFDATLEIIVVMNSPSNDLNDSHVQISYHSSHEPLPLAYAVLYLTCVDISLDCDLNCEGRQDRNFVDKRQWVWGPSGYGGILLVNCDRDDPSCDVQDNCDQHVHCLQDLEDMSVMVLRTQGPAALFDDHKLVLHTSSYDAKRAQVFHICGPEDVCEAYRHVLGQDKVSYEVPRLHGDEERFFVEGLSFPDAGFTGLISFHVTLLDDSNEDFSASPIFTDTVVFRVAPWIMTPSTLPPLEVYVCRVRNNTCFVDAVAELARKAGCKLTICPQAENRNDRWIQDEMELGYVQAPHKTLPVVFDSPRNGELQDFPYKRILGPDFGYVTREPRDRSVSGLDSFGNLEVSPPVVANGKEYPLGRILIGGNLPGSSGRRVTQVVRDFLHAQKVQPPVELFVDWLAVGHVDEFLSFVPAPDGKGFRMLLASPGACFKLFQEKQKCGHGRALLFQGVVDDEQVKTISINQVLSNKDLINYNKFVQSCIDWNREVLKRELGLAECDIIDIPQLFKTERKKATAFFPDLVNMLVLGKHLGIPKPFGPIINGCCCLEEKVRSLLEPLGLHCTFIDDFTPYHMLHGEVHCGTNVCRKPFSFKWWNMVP
Summary of the method: as §1

PAD4 = target: T4, PAD4 (Homo sapiens, UniProt Q9UM07); test: Inactivation kinetics, PAD4; conditions: for kinact/KI: a: single kobs determined, b: from a linear fit; for Fold PAD4 Selectivity: kinact/KI relative to least inhibited isozyme (1.0)
T4 construct: made in house
Summary of the method: as §1

T1 sequence (Q9Y2J8 whole entry): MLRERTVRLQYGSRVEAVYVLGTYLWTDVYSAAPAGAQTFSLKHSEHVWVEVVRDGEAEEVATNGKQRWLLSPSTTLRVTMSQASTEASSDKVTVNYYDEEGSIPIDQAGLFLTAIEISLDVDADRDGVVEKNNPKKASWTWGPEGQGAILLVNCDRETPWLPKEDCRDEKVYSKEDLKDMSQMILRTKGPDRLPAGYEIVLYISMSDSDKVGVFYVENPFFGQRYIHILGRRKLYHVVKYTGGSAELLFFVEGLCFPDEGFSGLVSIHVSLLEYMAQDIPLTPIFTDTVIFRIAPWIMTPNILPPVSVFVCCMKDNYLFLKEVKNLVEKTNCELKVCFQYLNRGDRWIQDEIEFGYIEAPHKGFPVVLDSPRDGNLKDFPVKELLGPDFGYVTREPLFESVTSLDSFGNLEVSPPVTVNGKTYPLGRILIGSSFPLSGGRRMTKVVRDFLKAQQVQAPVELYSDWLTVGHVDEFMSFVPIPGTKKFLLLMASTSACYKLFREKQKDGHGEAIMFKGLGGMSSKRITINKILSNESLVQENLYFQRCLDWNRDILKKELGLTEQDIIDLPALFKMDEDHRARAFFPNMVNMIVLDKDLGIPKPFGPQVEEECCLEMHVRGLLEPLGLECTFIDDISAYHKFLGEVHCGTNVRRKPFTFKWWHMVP
T4 sequence (Q9UM07 whole entry): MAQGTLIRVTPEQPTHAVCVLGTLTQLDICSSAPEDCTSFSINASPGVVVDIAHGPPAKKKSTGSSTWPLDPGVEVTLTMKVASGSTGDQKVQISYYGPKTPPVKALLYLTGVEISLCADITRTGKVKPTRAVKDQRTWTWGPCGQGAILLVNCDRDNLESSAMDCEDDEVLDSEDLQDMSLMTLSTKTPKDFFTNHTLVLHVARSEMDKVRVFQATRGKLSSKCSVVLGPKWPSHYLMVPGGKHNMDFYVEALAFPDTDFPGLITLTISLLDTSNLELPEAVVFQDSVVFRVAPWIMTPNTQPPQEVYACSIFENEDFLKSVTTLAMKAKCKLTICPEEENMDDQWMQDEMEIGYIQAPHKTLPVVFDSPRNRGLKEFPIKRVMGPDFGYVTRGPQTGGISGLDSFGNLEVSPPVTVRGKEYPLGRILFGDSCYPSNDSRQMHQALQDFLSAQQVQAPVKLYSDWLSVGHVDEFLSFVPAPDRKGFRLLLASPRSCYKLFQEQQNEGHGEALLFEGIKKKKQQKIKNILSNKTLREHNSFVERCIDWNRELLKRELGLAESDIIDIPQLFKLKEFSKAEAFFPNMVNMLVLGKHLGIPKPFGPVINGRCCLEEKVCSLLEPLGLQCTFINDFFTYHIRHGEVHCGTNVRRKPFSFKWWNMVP

SMILES | kinact/KI (PAD2) [M⁻¹ s⁻¹] | Fold PAD2 Selectivity (PAD2) [fold] | kinact/KI (PAD1) [M⁻¹ s⁻¹] | Fold PAD1 Selectivity (PAD1) [fold] | kinact/KI (PAD3) [M⁻¹ s⁻¹] | Fold PAD3 Selectivity (PAD3) [fold] | kinact/KI (PAD4) [M⁻¹ s⁻¹] | Fold PAD4 Selectivity (PAD4) [fold]
CCN1Cc2cccc(C(=O)N[C@@H](CCCNC(=N)CF)c3nc4ccccc4[nH]3)c2C1=O [Compound 8a, N1-(2-ethyl-3-oxoisoindoline)benzol-N5-(2-fluoro-1-iminoethyl)-1-(1H-benzo[d]imidazol-2-yl)-L-ornithine] | 240 | 1.0 | 807 | 3.4 | 248 | 1.0 | 248 | 1.0
CCN1Cc2cccc(C(=O)N[C@@H](CCCNC(=N)CCl)c3nc4ccccc4[nH]3)c2C1=O [Compound 8b, N1-(2-ethyl-3-oxoisoindoline)benzol-N5-(2-chloro-1-iminoethyl)-1-(1H-benzo[d]imidazol-2-yl)-L-ornithine] | 888 | 1.5 | 2530 | 4.3 | 583 | 1.0 | 810 | 1.4
CCN1Cc2cccc(C(=O)N[C@@H](CCCNC(=N)CCl)c3nc4ccccc4n3C)c2C1=O [Compound 8d, N1-(2-ethyl-3-oxoisoindoline)benzoyl-N5-(2-chloro-1-iminoethyl)-1-(1-methyl-benzo[d]imidazol-2-yl)-L-ornithine] | 1190 | 19 | 1320 | 21 | 62.8 | 1.0 | 75.7 | 1.2
CCN1Cc2cccc(C(=O)N[C@@H](CCCNC(=N)CF)c3nc4ccccc4n3CC)c2C1=O [Compound 8e, N1-(2-ethyl-3-oxoisoindoline)benzoyl-N5-(2-fluoro-1-iminoethyl)-1-(1-ethyl-benzo[d]imidazol-2-yl)-L-ornithine] | 677 | 33 | 402 | 19 | 20.8 | 1.0 | 20.7 | 1.0
CCN1Cc2cccc(C(=O)N[C@@H](CCCNC(=N)CCl)c3nc4ccccc4n3CC)c2C1=O [Compound 8f, N1-(2-ethyl-3-oxoisoindoline)benzoyl-N5-(2-chloro-1-iminoethyl)-1-(1-ethyl-benzo[d]imidazol-2-yl)-L-ornithine] | 752 | 14 | 952 | 18 | 114 | 2.1 | 54.2 | 1.0
CCN1Cc2cccc(C(=O)N[C@@H](CCCNC(=N)CF)c3nc4c(OC)cccc4[nH]3)c2C1=O [Compound 8i, N1-(2-ethyl-3-oxoisoindoline)benzoyl-N5-(2-fluoro-1-iminoethyl)-1-(4-methoxy-1H-benzo[d]imidazol-2-yl)-L-ornithine] | 396 | 32 | 1340 | 107 | 153 | 12 | 12.5 | 1.0

Second part, the molecule after the results:

kinact/KI (PAD2) [M⁻¹ s⁻¹] | Fold PAD2 Selectivity (PAD2) [fold] | kinact/KI (PAD1) [M⁻¹ s⁻¹] | Fold PAD1 Selectivity (PAD1) [fold] | kinact/KI (PAD3) [M⁻¹ s⁻¹] | Fold PAD3 Selectivity (PAD3) [fold] | kinact/KI (PAD4) [M⁻¹ s⁻¹] | Fold PAD4 Selectivity (PAD4) [fold] | SMILES
1000 | 3.5 | 2130 | 7.3 | 291 | 1.0 | 630 | 2.2 | COc1ccc2[nH]c([C@H](CCCNC(=N)CCl)NC(=O)c3cccc4c3C(=O)NC4)nc2c1 [Compound 7t, N1-(3-oxoisoindoline)benzoyl-N5-(2-chloro-1-iminoethyl)-1-(5-methoxy-1H-benzo[d]imidazol-2-yl)-L-ornithine]
658 | 50 | 316 | 24 | 33 | 2.5 | 13.2 | 1.0 | CCn1c([C@H](CCCNC(=N)CF)NC(=O)c2cccc3c2C(=O)NC3)nc2cc(OC)ccc21 [Compound 7u, N1-(3-oxoisoindoline)benzoyl-N5-(2-fluoro-1-iminoethyl)-1-(5-methoxy-1-ethyl-benzo[d]imidazol-2-yl)-L-ornithine]
780 | 16 | 1010 | 21 | 214 | 4.4 | 48.8 | 1.0 | CCn1c([C@H](CCCNC(=N)CCl)NC(=O)c2cccc3c2C(=O)NC3)nc2cc(OC)ccc21 [Compound 7v, N1-(3-oxoisoindoline)benzol-N5-(2-chloro-1-iminoethyl)-1-(5-methoxy-1-ethyl-benzo[d]imidazol-2-yl)-L-ornithine]
546 | 11 | 308 | 6.1 | 95.8 | 1.9 | 50.5 | 1.0 | CCN1Cc2cccc(C(=O)N[C@@H](CCCNC(=N)CF)c3nc4ccccc4n3C)c2C1=O [Compound 8c, N1-(2-ethyl-3-oxoisoindoline)benzoyl-N5-(2-fluoro-1-iminoethyl)-1-(1-methyl-benzo[d]imidazol-2-yl)-L-ornithine]
173 | 22 | 78.3 | 10 | 26.7 | 3.4 | 7.83 | 1.0 | CCN1Cc2cccc(C(=O)N[C@@H](CCCNC(=N)CF)c3nc4ccccc4n3C(C)C)c2C1=O [Compound 8g, N1-(2-ethyl-3-oxoisoindoline)benzol-N5-(2-fluoro-1-iminoethyl)-1-(1-isopropyl-benzo[d]imidazol-2-yl)-L-ornithine]
277 | 6.8 | 448 | 11 | 80 | 2.0 | 40.5 | 1.0 | CCN1Cc2cccc(C(=O)N[C@@H](CCCNC(=N)CCl)c3nc4ccccc4n3C(C)C)c2C1=O [Compound 8h, N1-(2-ethyl-3-oxoisoindoline)benzoyl-N5-(2-chloro-1-iminoethyl)-1-(1-isopropyl-benzo[d]imidazol-2-yl)-L-ornithine]
720 | 2.3 | 1530 | 5.0 | 313 | 1.0 | 308 | 1.0 | CCN1Cc2cccc(C(=O)N[C@@H](CCCNC(=N)CCl)c3nc4c(OC)cccc4[nH]3)c2C1=O [Compound 8j, N1-(2-ethyl-3-oxoisoindoline)benzoyl-N5-(2-chloro-1-iminoethyl)-1-(4-methoxy-1H-benzo[d]imidazol-2-yl)-L-ornithine]

From US11208386B2, “Inhibitors of protein arginine deiminases (PADs) and methods of preparation and use thereof” (University of Massachusetts, priority 2016, dated 2021)
